Measured values taken from patent publication US20030220307A1, “Remedial agent for osteoporosis” (priority 2000, published 2003).

Tests used:
[1] = system: ovariectomized (OVX) rats; assay type: in vivo, rat; conditions: 0.04 μg/kg per dose, subcutaneous, 5 times a week for 6 weeks; third lumbar vertebra
Experimental: Seven- to nine-week-old W-I female rats (Imamichi Institute for Animal Reproduction) were ovariectomized to remove both ovaries. From the following day, 1α,25-dihydroxyvitamin D3 was subcutaneously administered 5 times a week for 6 weeks in an amount of 0.01 to 0.04 μg/kg per dose. After the last administration, 24-hour urine was sampled from each rat and blood was drawn under ether anesthesia. The rats were then euthanized and their lumbar vertebrae were isolated. The lumbar bone mineral density was measured at the third lumbar vertebra site using a dual X-ray bone mineral densitometer (DCS-600, ALOKA). The blood and urinary calcium levels and the urinary creatinine level were measured with a HITACHI automatic analyzer (Model 7170, Hitachi). Statistical processing was carried out using a software package of Statistic Analysis System (SAS). A comparison between sham operation (sham) and ovariectomy (OVX) groups was made by an unpaired t-test, while a comparison between OVX and drug treatment groups or between sham and drug treatment groups was made by Dunnett's multiple test. A P-value less than 5% was defined as a significant difference.

[2] = system: ovariectomized (OVX) rats; experiment: Test in osteoporosis rat model (femur bone mineral density and blood Ca level); assay type: in vivo; conditions: oral; for OVX-induced decrease in femur bone mineral density: every day for 8 weeks, vs OVX group, p<0.05, level remained as high as in the sham group; for blood calcium-increasing effect: in amounts where they suppressed the decrease in bone mineral density, 8 weeks, blood drawn 24 hours after last administration
Experimental: The compounds of the present invention were evaluated for their effects on bone mineral density and blood calcium (Ca) level in osteoporosis rat model. The following compounds were tested: 1α,3β-dihydroxy-20(S)-(3-ethyl-3-hydroxypentyl)-9,10-secopregna-5,7,10(19),16-tetraene from Example 11 (hereinafter referred to as “Compound l”) and 1α,3β-dihydroxy-20(S)-(5-ethyl-5-hydroxy-3-heptynyl)-9,10-secopregna-5,7,10(19),16-tetraene from Example 6 (hereinafter referred to as “Compound 2”).
Nine-month-old W-I female rats (Imamichi Institute for Animal Reproduction) were ovariectomized to remove both ovaries. From the following day, Compound 1 or Compound 2 was orally administered every day for 8 weeks. Compound 1 was given in an amount of 0.5 μg/kg, 1 μg/kg or 2 μg/kg per day in two divided doses, while Compound 2 was given in an amount of 0.125 μg/kg, 0.25 μg/kg or 0.5 μg/kg per day in two divided doses. Twenty-four hours after the last administration, blood was drawn from each rat under ether anesthesia. The rats were then euthanized and their femurs were isolated.
The femur bone mineral density was measured using a dual X-ray bone mineral densitometer (DCS-600EX, ALOKA). The blood calcium (Ca) level was measured with a HITACHI automatic analyzer (Model 7170, Hitachi). For comparison purposes, both groups of sham operation (sham) and ovariectomy (OVX; in which rats were ovariectomized only, not followed by administration of test compounds) were similarly assayed for their blood calcium (Ca) level and bone mineral density by isolating their femurs.
Statistical processing was carried out using a software package of Statistic Analysis System (SAS). A comparison between sham operation (sham) and ovariectomy (OVX) groups was made by an unpaired t-test, while a comparison between OVX and drug treatment groups was made by Dunnett's multiple test. A P-value less than 5% was defined as a significant difference.

| blood calcium-increasing effect [2] | SMILES | OVX-induced decrease in lumbar bone mineral density [1] | OVX-induced decrease in femur bone mineral density ([2]; 1 μg/kg per day in two divided doses) | OVX-induced decrease in femur bone mineral density ([2]; 2 μg/kg per day in two divided doses) | OVX-induced decrease in femur bone mineral density ([2]; 0.125 μg/kg per day in two divided doses) | OVX-induced decrease in femur bone mineral density ([2]; 0.5 μg/kg per day in two divided doses) |
| --- | --- | --- | --- | --- | --- | --- |
| – | C=C1/C(=C\C=C2/CCC[C@]3(C)[C@@H]([C@H](C)CCCC(C)(C)O)CC[C@@H]23)C[C@@H](O)C[C@@H]1O [1α,25-dihydroxyvitamin D3] | significantly suppressed | – | – | – | – |
| not observed | C=C1/C(=C\C=C2/CCC[C@]3(C)C([C@@H](C)CCC(O)(CC)CC)=CCC23)C[C@@H](O)C[C@@H]1O (stereo partly drawn) [Compound 1, 1α,3β-dihydroxy-20(S)-(3-ethyl-3-hydroxypentyl)-9,10-secopregna-5,7,10(19),16-tetraene] | – | significantly suppressed | significantly suppressed | – | – |
| not observed | C=C1/C(=C\C=C2/CCC[C@]3(C)C([C@@H](C)CCC#CC(O)(CC)CC)=CCC23)C[C@@H](O)C[C@@H]1O (stereo partly drawn) [Compound 2, 1α,3β-dihydroxy-20(S)-(5-ethyl-5-hydroxy-3-heptynyl)-9,10-secopregna-5,7,10(19),16-tetraene] | – | – | – | significantly suppressed | significantly suppressed |
